# Results taken from patent US10093653B2, “Vitamin D receptor-coregulator inhibitors” (UWM Research Foundation, Inc., priority 2011, dated 2018).
# Key:
# VDR-SRC2-1 = target: T1, VDR-SRC2-1 (Homo sapiens, UniProt P11473, DEL165-215); test: VDR-coregulator binding FP, Texas Red-labeled peptide; settings: 3 h
# T1 construct: made in house
# T1 sequence (P11473 with tags, fused parts or gaps DEL165-215 limits assumed): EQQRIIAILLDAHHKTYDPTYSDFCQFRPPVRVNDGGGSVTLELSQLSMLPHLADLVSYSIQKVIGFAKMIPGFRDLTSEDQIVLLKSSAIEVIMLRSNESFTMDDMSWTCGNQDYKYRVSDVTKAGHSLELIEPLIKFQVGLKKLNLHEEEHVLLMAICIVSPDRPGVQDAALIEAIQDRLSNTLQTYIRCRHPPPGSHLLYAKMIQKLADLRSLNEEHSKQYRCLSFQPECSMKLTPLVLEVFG
# VDR-Hr1 = target: T2, VDR-Hr1 (Homo sapiens, UniProt P11473, DEL165-215); test: as above; settings: 3 h
# T2 construct: made in house
# T2 sequence (P11473 with tags, fused parts or gaps DEL165-215 limits assumed): T1 sequence (P11473 with tags, fused parts or gaps DEL165-215 limits assumed)
# VDR-LBD / SRC2-3 peptide = target: T3, VDR-LBD / SRC2-3 peptide (Homo sapiens, UniProt P11473, DEL165-215); test: Identification of reaction partner, pre-incubation FP; format: binding; settings: FP after 5 minutes
# T3 construct: made in house
# T3 sequence (P11473 with tags, fused parts or gaps DEL165-215 limits assumed): T1 sequence (P11473 with tags, fused parts or gaps DEL165-215 limits assumed)
# TRPV6 in DU145 cells = test: TRPV6 expression, semi-quantitative RT-PCR; format: cell-based
# CYP24A1 = CYP24A1 expression levels; format: cell-based; settings: compound and calcitriol
# DU145 cells = test: Cytotoxicity seen in TRPV6 expression study; format: cell-based; settings: concentrations higher than 20 μM
# VDR in SKOV-3 cells = test: VDR expression, western blotting of whole cell lysate; format: cell-based; settings: SKOV-3, 24 hours; 31b 25 and 50 uM, 32b 50 uM
# Method: Expression of VDR was analyzed by western blotting of whole cell lysate using monoclonal antibody against VDR (Neomarker, Calif. cat no-RT-200PO).
# SKOV-3 = test: Cytotoxicity, MTS assay; format: cell-based; settings: SKOV-3, within 48 hours
# OVCAR-8 = test: Cytotoxicity, MTS assay; format: cell-based; settings: OVCAR-8, within 48 hours
# ECC-1 = test: Cytotoxicity, MTS assay; format: cell-based; settings: ECC-1 endometrial cancer cell-line, within 48 hours
# SKOV-3 cells [1] = test: Mitochondrial transmembrane depolarization potential; format: cell-based
# SKOV-3 cells [2] = test: Western blots for cleaved PARP-1 and cleaved caspase-3; format: cell-based; settings: SKOV-3, within 24 hours
# SKOV-3 cells [3] = test: Reactive oxygen species levels; format: cell-based; settings: SKOV-3, within 24 hours
# Excerpt: (§1) Vitamin-d/VDR signaling protects the cancer cells from reactive oxygen species (ROS) induced cellular damages.
# SKOV-3 cells [4] = test: Western blots for phospho-p38 MAPkinase and phospho SAPK/JNK; format: cell-based; settings: SKOV-3, 25 uM, within 24 hours
# Excerpt: as §1
# SKOV-3 cells [5] = test: Cell cycle analysis by FACS; format: cell-based; settings: SKOV-3, 24 hours
# Excerpt: Inducing cell cycle arrest or targeting cell-cycle regulators by small molecule modulators has shown promising outcomes in animal models.
# [6] = 12 h, pH 7.4
# [7] = PAMPA
# VDR-SRC2 interaction = target: T4, VDR-SRC2 interaction (Homo sapiens, UniProt P11473, DEL165-215); test: Pull down assay, VDR and SRC2 bearing all three NIDs
# T4 sequence (P11473 with tags, fused parts or gaps DEL165-215 limits assumed): T1 sequence (P11473 with tags, fused parts or gaps DEL165-215 limits assumed)
# physchem = settings: pH 7.4, aqueous buffer, kinetic from dmso stock
# in vitro = settings: PAMPA
# 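For Papp in this document: passive permeability measured by parallel artificial membrane permeability assay, each experiment run in triplicate.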
# 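For Permeability Log(Pe) in this document: passive permeability measured by parallel artificial membrane permeability assay, each experiment run in triplicate.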
smiles,measurement,setting,value
"Cc1[nH]c2ccccc2c1C(Nc1ccc(Cl)cc1)c1ccccc1Cl (stereo not shown) [Compound 31b, 4-chloro-N-((2-chlorophenyl)(2-methyl-1H-indol-3-yl)methyl)aniline]",Inhibition of VDR-SRC2-1 binding,VDR-SRC2-1,no inhibition
same,Inhibition of VDR-Hr1 binding,VDR-Hr1,no inhibition
same,"FP signal after pre-incubation with SRC2-3 for 3 hours, then addition of VDR-LBD and LG190178",VDR-LBD / SRC2-3 peptide,did not change
same,"FP signal after pre-incubation with VDR-LBD and LG190178 for 3 hours, then addition of SRC2-3",VDR-LBD / SRC2-3 peptide,did result in a change of FP signal
same,"TRPV6 transcription in the presence of 1,25-(OH)2D3","TRPV6 in DU145 cells; 20 nM 1,25-(OH)2D3, different concentrations",reduced in a dose dependent manner
same,"TRPV6 regulation, single treatment","TRPV6 in DU145 cells; 20 μM, without 1,25-(OH)2D3",no regulation of TRPV6
same,"CYP24A1 induction with calcitriol, in comparison to calcitriol treatment",CYP24A1,significant increase in CYP24A1 induction
same,Cytotoxicity in DU145 cells,DU145 cells,increased cytotoxicity
same,Expression of VDR,VDR in SKOV-3 cells,downregulation of VDR
same,"Cytotoxicity, cell viability",SKOV-3,potent cytotoxicity
same,"Cytotoxicity, cell viability",OVCAR-8,potent cytotoxicity
same,"Cytotoxicity, cell viability",ECC-1,potent cytotoxicity
same,Mitochondrial transmembrane depolarization potential (ΔΨm),SKOV-3 cells [1],induced activation of mitochondrial transmembrane depolarization potential
same,Activation of caspase-3,SKOV-3 cells [2],activation of caspase-3
same,Cleavage of PARP-1,SKOV-3 cells [2],significant cleavage of PARP-1
same,Reactive oxygen species level compared to vehicle,SKOV-3 cells [3],elevated level of reactive production
same,Activation of SAPK/JNK,SKOV-3 cells [4],strong/sustained activation of SAPK/JNK
same,Activation of p38 MAPkinase,SKOV-3 cells [4],activation of p38 MAPkinase
same,Apoptotic (subG1/G0) population,SKOV-3 cells [5],increase
same,Population in G1 and G2/M phase,SKOV-3 cells [5],reduced
same,S-phase arrest of cycling cells,SKOV-3 cells [5],restricted the progression of cycling cells in S-phase significantly
same,Solubility,[6],68.0 µM
same,Permeability Log(Pe),[7],−6.24 cm/s
same,Inhibition of VDR-SRC2 interaction in pull down assay,"VDR-SRC2 interaction; 50 μM and 100 μM, residual interaction still detected",significant inhibition
same,VDR-SRC2 interaction after pre-incubation of SRC2 with compound,"VDR-SRC2 interaction; beads washed, then treated with VDR",VDR-SRC2 interactions could be verified
same,Inhibition of VDR-SRC2 interaction in pull down assay,"VDR-SRC2 interaction; different concentrations, with 1,25(OH)2D3",blocked in a dose dependent manner
"Cc1[nH]c2ccccc2c1C(Nc1ccccc1)c1ccc(OCCCO)cc1 (stereo not shown) [Compound 30i, 3-(4-((2-methyl-1H-indol-3-yl)(phenylamino)methyl)phenoxy)propan-1-ol]",solubility at 12 h,physchem,503 µM
same,Papp,in vitro,0.148 ×10⁻⁶ cm/s
